In series [1] the test system is Spodoptera littoralis (Egyptian cotton leafworm). Briefly: Example B1: Activity against Spodoptera littoralis (larvicide, feeding/residual contact activity, preventive), cotton leaf discs. The series is classed as in vivo. The settings on record: foliar, 72 h, L1 larvae on cotton leaf discs, 3 days after treatment.
Series [2] relates to Heliothis virescens (tobacco budworm). In words: Example B2: Activity against Heliothis virescens (ovo-larvicide, feeding/contact activity, curative), eggs on artificial diet. It is filed as in vivo. The settings on record: 96 h, 4 days incubation. The procedure: Activity Against Heliothis virescens (Tobacco Budworm) (Ovo-Larvicide, Feeding/Contact Activity, Curative) Eggs (0-24 h old) are placed in 24-well microtiter plate on artificial diet and treated with test solutions by pipetting. After an incubation period of 4 days, samples are checked for egg mortality, larval mortality, and growth regulation.

The test system of series [3] is Plutella xylostella (diamond back moth). Briefly: Example B3: Plutella xylostella (larvicide, feeding/residual contact activity, preventive), artificial diet MTP. The series is classed as in vivo. The settings on record: 120 h, L2 larvae on artificial diet, 5 days incubation. The procedure: Plutella xylostella (Diamond Back Moth) (Larvicide, Feeding/Residual Contact Activity, Preventive) 24-well microtiter plate (MTP) with artificial diet is treated with test solutions by pipetting. After drying, the MTP's are infested with larvae (L2) (10-15 per well). After an incubation period of 5 days, samples are checked for larval mortality, antifeedant and growth regulation.

Series [4] relates to Diabrotica balteata (corn root worm). Briefly: Example B4: Diabrotica balteata (larvicide, feeding/residual contact activity, preventive), artificial diet MTP. It is filed as in vivo. The settings on record: 120 h, L2 larvae on artificial diet, 5 days incubation. On the procedure: Diabrotica balteata (Corn Root Worm) (Larvicide, Feeding/Residual Contact Activity, Preventive) 24-well microtiter plate (MTP) with artificial diet is treated with test solutions by pipetting. After drying, the MTP's are infested with larvae (L2) (6-10 per well). After an incubation period of 5 days, samples are checked for larval mortality, antifeedant and growth regulation.

For series [5], the system named is Plutella xylostella (diamond back moth). Briefly: Example B8: comparison with state of the art, Plutella xylostella (larvicide, feeding/residual contact activity, preventive). The series is classed as in vivo. The procedure:
Plutella xylostella (Diamond Back Moth)
(Larvicide, Feeding/Residual Contact Activity, Preventive)
24-well microtiter plate (MTP) with artificial diet is treated with test solutions by pipetting. After drying, the MTP's are infested with larvae (L2) (10-15 per well). After an incubation period of 5 days, samples are checked for larval mortality, antifeedant and growth regulation.

Series [6] relates to Spodoptera littoralis (Egyptian cotton leafworm). Briefly: Example B9: comparison with state of the art, Spodoptera littoralis (larvicide, feeding/residual contact activity, preventive). The series is classed as in vivo.
The test system of series [7] is Myzus persicae (green peach aphid). The settings on record: foliar, 144 h, read-out: activity.
Series [8] has the same test system. In words: Example B6: Activity against Myzus persicae (mixed population, systemic/feeding activity, curative), pea seedling roots in test solution. The conditions noted are these: 144 h, read-out: activity.

Like-named read-outs stand apart in the source and are kept apart here.

Usually melting point stands for the temperature of the solid-liquid transition. As to `CSCC(C)(C)NC(=O)c1c(NC(=O)c2cc(C(F)(F)F)nn2-c2ncccc2Cl)c(C)cc2c1OC(F)(F)O2`, the melting point was 173 to 174 °C.
The same measure, in the same setting: for `CC(C)(CS(C)(=O)=O)NC(=O)c1c(NC(=O)c2cc(C(F)(F)F)nn2-c2ncccc2Cl)c(Cl)cc2c1OCO2` the value was 88 to 90 °C; for `C[S+]([O-])CC(C)(C)NC(=O)c1c(NC(=O)c2cc(Cl)nn2-c2ncccc2Cl)c(Cl)cc2c1OC(F)(F)O2` (stereo not drawn), 240 to 242 °C; for `CC(C)(CS(C)(=N)=O)NC(=O)c1c(NC(=O)c2cc(Cl)nn2-c2ncccc2Cl)c(Cl)cc2c1OC(F)(F)O2` (stereo not drawn), 188 to 190 °C.
`CNC(=O)c1c(NC(=O)c2cc(OC(F)F)nn2-c2ncccc2Cl)c(C)cc2c1OC(F)(F)O2` gave a melting point of 236 to 237 °C.
In the case of `Cc1cc2c(c(C(=O)NC(C)C)c1NC(=O)c1cc(OC(F)F)nn1-c1ncccc1Cl)OC(F)(F)O2`, the melting point fell in the range of 203 to 204 °C.
Still for that read-out and setting: with `CNC(=O)c1c(NC(=O)c2cc(C(F)F)nn2-c2ncccc2Cl)c(C)cc2c1OC(C)C2` (stereo not drawn) the figure was 205 to 206 °C; with `Cc1cc2c(c(C(=O)NC(C)C)c1NC(=O)c1cc(C(F)F)nn1-c1ncccc1Cl)OC(C)C2` (stereo not drawn), 140 to 142 °C.
`CC(C)NC(=O)c1c(NC(=O)c2cc(C(F)(F)F)nn2-c2ncccc2Cl)c(Cl)cc2c1OC(F)(F)O2` [P.13]: the pest or weed control at 400 ppm in series [1], in series [2], in series [3] and in series [4] was > 80% in each case. Further, the “Death rate (%) after 5 days” value in [5] (Concentration 12.5 ppm), in [5] (Concentration 50 ppm), in series [5] (Concentration 200 ppm), in [6] (Concentration 12.5 ppm), in [6] (Concentration 50 ppm) and in [6] (Concentration 200 ppm) was 100% in each case. The “insecticidal action compared with the compound from the state of the art (T91.3)” value was “substantially better insecticidal action” in series [5] (on Plutella xylostella, especially at low application rates) and “substantially better insecticidal action” in series [6] (on Spodoptera littoralis, especially at low application rates).
With `CSCC(C)(C)NC(=O)c1c(NC(=O)c2cc(Cl)nn2-c2ncccc2Cl)c(Cl)cc2c1OC(F)(F)O2` [P.24], the pest or weed control at 400 ppm in [1], in series [2], in [3], in series [4], in series [7] and in [8] was > 80% each time.
As to `CNC(=O)c1c(NC(=O)c2cc(Br)nn2-c2ncccc2Cl)c(C)cc2c1OC(F)(F)O2` [P.26], the pest or weed control at 400 ppm in series [1], in [2], in series [3], in series [4], in [7] and in series [8] was > 80% throughout.
On to `CSCC(C)(C)NC(=O)c1c(NC(=O)c2cc(Br)nn2-c2ncccc2Cl)c(C)cc2c1OC(F)(F)O2` [P.27], for which the pest or weed control at 400 ppm in [1], in series [2], in series [3], in series [4], in series [7] and in [8] was > 80% each time.
`Cc1cc2c(c(C(=O)NC(C)C)c1NC(=O)c1cc(Cl)nn1-c1ncccc1Cl)OC(F)(F)O2` [P.30]: the pest or weed control at 400 ppm in series [1], in series [2], in series [3], in series [4], in series [7] and in series [8] was > 80% throughout.
Regarding `CSCC(C)(C)NC(=O)c1c(NC(=O)c2cc(Cl)nn2-c2ncccc2Cl)c(C)cc2c1OC(F)(F)O2` [P.31], the pest or weed control at 400 ppm in series [1], in series [2], in [3], in series [4], in series [7] and in series [8] was > 80% each time.
In the case of `COc1cc(C(=O)Nc2ccc3c(c2C(=O)NC(C)C)OCO3)n(-c2ncccc2Cl)n1` [P.64], the melting point fell in the range of 216 to 217 °C.
On the same count and under the same terms, for `CCNC(=O)c1c(NC(=O)c2cc(Br)nn2-c2ncccc2Cl)ccc2c1OCO2` [P.65] the value was 178 to 179 °C.
Same read-out and setting: with `CNC(=O)c1c(NC(=O)c2cc(C(F)F)nn2-c2ncccc2Cl)ccc2c1OC(C)C2` (stereo not drawn) [P.85] the figure was 211 to 213 °C; with `CC(C)NC(=O)c1c(NC(=O)c2cc(C(F)F)nn2-c2ncccc2Cl)ccc2c1OC(C)C2` (stereo not drawn) [P.86], 169 to 170 °C.
Turning to `CC(C)NC(=O)c1cc2c(c(Cl)c1NC(=O)c1cc(C(F)(F)F)nn1-c1ncccc1Cl)OC(F)(F)O2` [T91.3, reference compound], the “Death rate (%) after 5 days” value in series [5] (Concentration 12.5 ppm) was 0%; in [5] (Concentration 50 ppm), 80%; in [5] (Concentration 200 ppm), 100%; in [6] (Concentration 12.5 ppm), 0%; in [6] (Concentration 50 ppm), 0%; in series [6] (Concentration 200 ppm) it was 100 (growth) %.

For the origin of these results see patent publication US8399490B2, “Insecticides” (Syngenta Crop Protection LLC, priority 2007, dated 2013).
